Molecules are shown by their SMILES.

For assay [1], the system named is neomycin sensing riboswitch (NSR), wild-type (U14) (RNA, riboswitch) GGCUGCUUGUCCUUUAAUGGUCCAGUC
The assay can be described thus: 1H NMR imino spectra. Particulars: no added monovalent ions; complex also in K+ buffers; 50 mM BisTris pH 6.3, 10 °C; ligand in slight excess; U10, U21 signals remain at 40 °C.

For assay [2], the system named is NSR U14C mutant (C14+) (RNA, riboswitch, C14 protonated at N3 in the folded complex (transcribed as ordinary C)) GGCUGCUUGUCCUCUAAUGGUCCAGUC
The assay can be described thus: 1H NMR imino spectra. Particulars: no added monovalent ions; complex also in K+ buffers; 50 mM BisTris pH 6.3, 10 °C; ligand in slight excess.

`NC[C@H]1O[C@H](O[C@H]2[C@H](O[C@@H]3O[C@H](CO)[C@@H](O)[C@H]3O)[C@@H](O)[C@H](N)C[C@@H]2N)[C@H](N)[C@@H](O)[C@@H]1O`: the binding result in assay [1] and in assay [2] was “yes” each time.

(Values after PMC6061696 (2018).)
